Source: publication PMC4506515, “Structural basis for catalytically restrictive dynamics of a high-energy enzyme state” (Nature Communications, 2015)

What was measured:
[1] = biological target: T1, adenylate kinase (AdK) (Escherichia coli, UniProt P69441); assay: NMR spectra of the ADP-saturated enzyme; assay type: binding; conditions: 30 mM MOPS, 50 mM NaCl, pH 7.0; 25 °C
T1 construct: full-length, no tag mentioned; pEAK-91 vector, AdK promotor, BL21(DE3); Blue Sepharose and size exclusion

[2] = biological target: T1, adenylate kinase (AdK); assay: coupled spectroscopic assay, […] nm (NADH); assay type: biochemical; conditions: 0.3 mM AMP, 2 mM MgCl2, 100 mM Tris, 80 mM KCl, pH 7.5; 15, 25, 35 and 45 °C
[3] = biological target: T2, adenylate kinase (AdK) (Escherichia coli, UniProt P69441, Y171W); assay: isothermal titration calorimetry, single-site fit; assay type: binding
T2 construct: full-length, no tag mentioned; pEAK-91 vector, AdK promotor, BL21(DE3); Blue Sepharose and size exclusion

[4] = biological target: T3, adenylate kinase (AdK) (Escherichia coli, UniProt P69441, P177A); assay: isothermal titration calorimetry, single-site fit; assay type: binding; conditions: 30 mM MOPS, 50 mM NaCl, pH 7.0; measured at 15, 25, 35 and 45 °C
T3 construct: full-length, no tag mentioned; pEAK-91 vector, AdK promotor, BL21(DE3); Blue Sepharose and size exclusion

[5] = biological target: T1, adenylate kinase (AdK); assay: isothermal titration calorimetry, single-site fit; assay type: binding; conditions: 30 mM MOPS, 50 mM NaCl, pH 7.0; measured at 15, 25, 35 and 45 °C

T1 sequence (P69441 whole entry): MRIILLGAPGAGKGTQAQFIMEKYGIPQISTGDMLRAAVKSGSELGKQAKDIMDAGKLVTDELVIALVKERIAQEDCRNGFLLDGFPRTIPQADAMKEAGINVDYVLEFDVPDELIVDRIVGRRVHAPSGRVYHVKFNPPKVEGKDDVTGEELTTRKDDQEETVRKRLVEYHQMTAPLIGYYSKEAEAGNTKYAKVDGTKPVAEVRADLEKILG
T2 sequence (P69441 whole entry Y171W): as the sequence (P69441 whole entry) above, with Y171W counted along it
T3 sequence (P69441 whole entry P177A): as the sequence (P69441 whole entry) above, with P177A counted along it

For Nc1ncnc2c1ncn2[C@@H]1O[C@H](COP(=O)(O)OP(=O)(O)O)[C@@H](O)[C@H]1O [ADP], the “NMR spectra of the ADP-saturated enzyme” value [1] was “wild-type AdK in complex with saturating concentrations of the natural substrate ADP”.

Nc1ncnc2c1ncn2[C@@H]1O[C@H](COP(=O)(O)OP(=O)(O)OP(=O)(O)O)[C@@H](O)[C@H]1O [ATP] was tested, and the KM [2] was “ATP affinity, KM, for the used spectroscopic assay”.

For Nc1ncnc2c1ncn2[C@@H]1O[C@H](COP(=O)(O)OP(=O)(O)OP(=O)(O)OP(=O)(O)OP(=O)(O)OC[C@H]2O[C@@H](n3cnc4c(N)ncnc43)[C@H](O)[C@@H]2O)[C@@H](O)[C@H]1O [Ap5a, P1,P5-di(adenosine-5′)pentaphosphate], the Kd [3] was 250 ± 60 nM, the KD [4] was “KD values for the wild type, P177A and Y171W variants” and the KD [5] was “KD values for the wild type, P177A and Y171W variants”.
